# Assays:
# [1] = system: Mycobacterium tuberculosis; test: Growth inhibition of Mycobacterium tuberculosis H37Ra at 0.002 ug/ml after 6 days by microplate alamar blue assay; format: functional; conditions: 144 h, read-out: GI
# [2] = system: Mycobacterium tuberculosis; test: Growth inhibition of Mycobacterium tuberculosis H37Ra at 0.5 ug/ml after 6 days by microplate alamar blue assay; format: functional; conditions: 144 h, read-out: GI
# [3] = system: Mycobacterium avium; test: Growth inhibition of Mycobacterium avium ATCC 25291 at 2 ug/ml after 6 days by microplate alamar blue assay; format: functional, Mycobacterium avium subsp. avium ATCC 25291; conditions: ATCC 25291, 144 h, read-out: GI
# [4] = system: Staphylococcus aureus; test: Antibacterial activity against Staphylococcus aureus ATCC 25923 after 16 to 20 hrs by broth microdilution method; format: functional; conditions: for MIC: read-out: MIC100
# [5] = system: Enterococcus faecalis; test: Antibacterial activity against Enterococcus faecalis ATCC 29212 after 16 to 20 hrs by broth microdilution method; format: functional; conditions: for MIC: read-out: MIC100
# [6] = system: Pseudomonas aeruginosa; test: Antibacterial activity against Pseudomonas aeruginosa ATCC 13048 after 16 to 20 hrs by broth microdilution method; format: functional
# [7] = system: Salmonella typhimurium; test: Antibacterial activity against clinical isolates of Salmonella typhimurium after 16 to 20 hrs by broth microdilution method; format: functional; conditions: for MIC: Salmonella enterica, read-out: MIC100
# [8] = system: Escherichia coli; test: Antibacterial activity against Escherichia coli ATCC 25922 after 16 to 20 hrs by broth microdilution method; format: functional
# [9] = system: Mycobacterium tuberculosis; test: Growth inhibition of Mycobacterium tuberculosis H37Ra at 75 ug/ml after 6 days by microplate alamar blue assay; format: functional; conditions: 144 h, read-out: GI
# [10] = system: Mycobacterium tuberculosis; test: Growth inhibition of Mycobacterium tuberculosis H37Ra at 50 ug/ml after 6 days by microplate alamar blue assay; format: functional; conditions: 144 h, read-out: GI
# [11] = system: Mycobacterium tuberculosis; test: Growth inhibition of Mycobacterium tuberculosis H37Ra at 50 ug/ml after 6 days in presence of 0.012 ug/ml of isoniazid and 0.002 ug/ml of rifampicin by microplate alamar blue assay; format: functional
# [12] = system: Mycobacterium tuberculosis; test: Growth inhibition of Mycobacterium tuberculosis H37Ra assessed as fractional inhibitory concentration index at 75 ug/ml after 6 days in presence of 0.2 ug/ml of isoniazid by microplate alamar blue assay; format: functional
# [13] = system: Mycobacterium tuberculosis; test: Growth inhibition of Mycobacterium tuberculosis H37Ra at 100 ug/ml after 6 days by microplate alamar blue assay; format: functional; conditions: 144 h, read-out: GI
# [14] = system: Pseudomonas aeruginosa; test: Growth inhibition of Pseudomonas aeruginosa ATCC 13048 at 10 to 200 ug/ml after 16 to 20 hrs by broth microdilution method; format: functional
# [15] = system: Mycobacterium tuberculosis; test: Growth inhibition of Mycobacterium tuberculosis H37Ra at 75 ug/ml after 6 days in presence of 0.2 ug/ml of isoniazid by microplate alamar blue assay; format: functional
# [16] = system: Mycobacterium tuberculosis; test: Growth inhibition of Mycobacterium tuberculosis H37Ra at 200 ug/ml after 6 days by microplate alamar blue assay; format: functional; conditions: 144 h, read-out: GI
# [17] = system: Mycobacterium tuberculosis; test: Growth inhibition of Mycobacterium tuberculosis H37Ra assessed as fractional inhibitory concentration index at 50 ug/ml after 6 days in presence of 0.012 ug/ml of isoniazid and 0.002 ug/ml of rifampicin by microplate alamar blue assay; format: functional
# [18] = system: Mycobacterium tuberculosis; test: Growth inhibition of Mycobacterium tuberculosis H37Ra at 100 ug/ml after 6 days in presence of 0.2 ug/ml of isoniazid by microplate alamar blue assay; format: functional
# [19] = system: Mycobacterium avium; test: Growth inhibition of Mycobacterium avium ATCC 25291 at 200 ug/ml after 6 days by microplate alamar blue assay; format: functional, Mycobacterium avium subsp. avium ATCC 25291; conditions: ATCC 25291, 144 h, read-out: GI
# [20] = system: Mycobacterium tuberculosis; test: Inhibition of Mycobacterium tuberculosis H37Ra infected in human THP1 cells assessed as reduction in surviving bacteria at 200 ug/ml after 7 days by serial dilution method; format: functional; conditions: THP-1, 168 h
# [21] = system: Escherichia coli; test: Growth inhibition of Escherichia coli ATCC 25922 at 10 to 200 ug/ml after 16 to 20 hrs by broth microdilution method; format: functional
# [22] = Cytotoxicity against African green monkey Vero cells assessed as decrease in cell viability after 3 days by XTT assay; format: toxicity, cell-based; conditions: chlorocebus sabaeus
# [23] = system: Mycobacterium tuberculosis; test: Growth inhibition of Mycobacterium tuberculosis H37Ra at 50 ug/ml after 6 days in presence of 0.006 ug/ml of isoniazid and 0.002 ug/ml of rifampicin by microplate alamar blue assay; format: functional
# [24] = system: Mycobacterium tuberculosis; test: Growth inhibition of Mycobacterium tuberculosis H37Ra assessed as fractional inhibitory concentration index at 50 ug/ml after 6 days in presence of 0.006 ug/ml of isoniazid and 0.002 ug/ml of rifampicin by microplate alamar blue assay; format: functional
# [25] = system: Mycobacterium tuberculosis; test: Growth inhibition of Mycobacterium tuberculosis H37Ra assessed as fractional inhibitory concentration index at 100 ug/ml after 6 days in presence of 0.2 ug/ml of isoniazid by microplate alamar blue assay; format: functional
# [26] = system: Enterococcus faecalis; test: Growth inhibition of Enterococcus faecalis ATCC 29212 at 100 ug/ml after 6 days in presence of 4.5 ug/ml of gentamicin by microplate alamar blue assay; format: functional
# [27] = system: Enterococcus faecalis; test: Growth inhibition of Enterococcus faecalis ATCC 29212 assessed as fractional inhibitory concentration index at 100 ug/ml after 6 days in presence of 4.5 ug/ml of gentamicin by microplate alamar blue assay; format: functional
# [28] = system: Staphylococcus aureus; test: Growth inhibition of Staphylococcus aureus ATCC 25923 at 100 ug/ml after 6 days in presence of 0.1 ug/ml of gentamicin by microplate alamar blue assay; format: functional
# [29] = system: Staphylococcus aureus; test: Growth inhibition of Staphylococcus aureus ATCC 25923 assessed as fractional inhibitory concentration index at 100 ug/ml after 6 days in presence of 0.1 ug/ml of gentamicin by microplate alamar blue assay; format: functional
# [30] = system: Mycobacterium tuberculosis; test: Growth inhibition of Mycobacterium tuberculosis H37Ra at 0.012 ug/ml after 6 days by microplate alamar blue assay; format: functional; conditions: 144 h, read-out: GI
# [31] = system: Mycobacterium tuberculosis; test: Inhibition of Mycobacterium tuberculosis H37Ra infected in human THP1 cells assessed as reduction in surviving bacteria at 1 ug/ml after 7 days by serial dilution method; format: functional; conditions: THP-1, 168 h
# [32] = system: Mycobacterium tuberculosis; test: Growth inhibition of Mycobacterium tuberculosis H37Ra at 0.006 ug/ml after 6 days by microplate alamar blue assay; format: functional; conditions: 144 h, read-out: GI
# [33] = system: Mycobacterium tuberculosis; test: Growth inhibition of Mycobacterium tuberculosis H37Ra at 0.2 ug/ml after 6 days by microplate alamar blue assay; format: functional; conditions: 144 h, read-out: GI
# [34] = system: Mycobacterium tuberculosis; test: Growth inhibition of Mycobacterium tuberculosis H37Ra at 1 ug/ml after 6 days by microplate alamar blue assay; format: functional; conditions: 144 h, read-out: GI
compound,measurement,setting,value
CO[C@H]1/C=C/O[C@@]2(C)Oc3c(C)c(O)c4c(O)c(c(/C=N/N5CCN(C)CC5)c(O)c4c3C2=O)NC(=O)/C(C)=C\C=C\[C@H](C)[C@H](O)[C@@H](C)[C@@H](O)[C@@H](C)[C@H](OC(C)=O)[C@@H]1C [RIFAMPIN],inhibition of growth at 0.002 µg/mL,[1],46.2%
same,inhibition of growth at 0.5 µg/mL,[2],100%
same,inhibition of growth at 2 µg/mL,[3],90%
CN[C@H](CC(C)C)C(=O)N[C@H]1C(=O)N[C@@H](CC(N)=O)C(=O)N[C@H]2C(=O)N[C@H]3C(=O)N[C@H](C(=O)N[C@H](C(=O)O)c4cc(O)cc(O)c4-c4cc3ccc4O)[C@H](O)c3ccc(c(Cl)c3)Oc3cc2cc(c3O[C@@H]2O[C@H](CO)[C@@H](O)[C@H](O)[C@H]2O[C@H]2C[C@](C)(N)[C@H](O)[C@H](C)O2)Oc2ccc(cc2Cl)[C@H]1O [VANCOMYCIN],MIC,[4],1.5 µg/mL
same,MIC,[5],4.5 µg/mL
GENTAMICIN,MIC100,[4],0.5 µg/mL
same,MIC100,[6],1 µg/mL
same,MIC100,[7]; Salmonella enterica subsp. enterica serovar Typhimurium,1 µg/mL
same,MIC100,[8],1 µg/mL
same,MIC100,[5],12.5 µg/mL
C#CCOc1cn([C@@H]2O[C@H](CO)[C@@H](O)[C@H]2F)c(=O)[nH]c1=O,inhibition of growth at 75 µg/mL,[9],1.15%
same,inhibition of growth at 50 µg/mL,[10],2.51%
same,MIC,[4],> 200 µg/mL
same,growth inhibition (GI),[11],97.81%
same,fractional inhibitory concentration index (FICI),[12],0.56
same,inhibition of growth at 100 µg/mL,[13],3.15%
same,growth inhibition (GI),[14],0%
same,MIC,[7],> 200 µg/mL
same,growth inhibition (GI),[15],81.16%
same,inhibition of growth at 200 µg/mL,[16],97%
same,fractional inhibitory concentration index (FICI),[17],0.09
same,growth inhibition (GI),[18],99.15%
same,inhibition of growth at 200 µg/mL,[19],0%
same,inhibition at 200 µg/mL,[20],50%
same,growth inhibition (GI),[21],0%
same,CC50 at 72 h,[22],> 300 µg/mL
same,growth inhibition (GI),[23],93.36%
same,MIC,[5],> 200 µg/mL
same,fractional inhibitory concentration index (FICI),[24],0.21
same,fractional inhibitory concentration index (FICI),[25],0.03
C#CCOc1cn([C@@H]2O[C@H](CO)[C@@H](O)[C@H]2F)c(=O)n(CC#C)c1=O,growth inhibition (GI),[26],100%
same,MIC,[4],200 µg/mL
same,MIC,[6]; read-out: MIC100,> 200 µg/mL
same,MIC,[7],> 200 µg/mL
same,inhibition of growth at 200 µg/mL,[16],35%
same,MIC,[8]; read-out: MIC100,> 200 µg/mL
same,inhibition of growth at 200 µg/mL,[19],0%
same,CC50 at 72 h,[22],> 300 µg/mL
same,fractional inhibitory concentration index (FICI),[27],0.86
same,MIC,[5],200 µg/mL
same,growth inhibition (GI),[28],100%
same,fractional inhibitory concentration index (FICI),[29],0.7
CC[C@H]1OC(=O)[C@H](C)[C@@H](O[C@H]2C[C@@](C)(OC)[C@@H](O)[C@H](C)O2)[C@H](C)[C@@H](O[C@@H]2O[C@H](C)C[C@H](N(C)C)[C@H]2O)[C@](C)(OC)C[C@@H](C)C(=O)[C@H](C)[C@@H](O)[C@]1(C)O [CLARITHROMYCIN],inhibition of growth at 2 µg/mL,[3],100%
NNC(=O)c1ccncc1 [ISONIAZID],inhibition of growth at 0.012 µg/mL,[30],7.22%
same,inhibition at 1 µg/mL,[31],> 90%
same,inhibition of growth at 0.006 µg/mL,[32],1.47%
same,inhibition of growth at 0.2 µg/mL,[33],48.8%
same,inhibition of growth at 1 µg/mL,[34],100%

# — ChEMBL document CHEMBL3861999, “Investigation of C-5 alkynyl (alkynyloxy or hydroxymethyl) and/or N-3 propynyl substituted pyrimidine nucleoside analogs as a new class of antimicrobial agents” (Bioorg Med Chem, 2016)
